Assay results from patent US20230086703A1, “N-(4-(5-chloropyridin-3-yl)phenyl)-2-(2-(cyclopropanesulfonamido)pyrimidin-4-yl) butanamide derivatives and related compounds as human CTPS1 inhibitors for the treatment of proliferative diseases” (Step Pharma S.A.S., priority 2019, published 2023).
pIC50: −log10 of the molar value.

Legend:
human CTPS1 [1] = target: T1, human CTPS1 (Homo sapiens, UniProt P17812); experiment: Human CTPS1 enzyme inhibition, ADP-Glo Max assay; type: biochemical; conditions: Table 12, ADP-Glo Max assay; read-out: CTPS1 (Human CTPS1 Enzyme Inhibition data grouped by potency range)
T1 construct: FLAG (with GG linker); His8 (with GG linker); purchased Proteros biostructures GmbH
T1 sequence (P17812 1-591): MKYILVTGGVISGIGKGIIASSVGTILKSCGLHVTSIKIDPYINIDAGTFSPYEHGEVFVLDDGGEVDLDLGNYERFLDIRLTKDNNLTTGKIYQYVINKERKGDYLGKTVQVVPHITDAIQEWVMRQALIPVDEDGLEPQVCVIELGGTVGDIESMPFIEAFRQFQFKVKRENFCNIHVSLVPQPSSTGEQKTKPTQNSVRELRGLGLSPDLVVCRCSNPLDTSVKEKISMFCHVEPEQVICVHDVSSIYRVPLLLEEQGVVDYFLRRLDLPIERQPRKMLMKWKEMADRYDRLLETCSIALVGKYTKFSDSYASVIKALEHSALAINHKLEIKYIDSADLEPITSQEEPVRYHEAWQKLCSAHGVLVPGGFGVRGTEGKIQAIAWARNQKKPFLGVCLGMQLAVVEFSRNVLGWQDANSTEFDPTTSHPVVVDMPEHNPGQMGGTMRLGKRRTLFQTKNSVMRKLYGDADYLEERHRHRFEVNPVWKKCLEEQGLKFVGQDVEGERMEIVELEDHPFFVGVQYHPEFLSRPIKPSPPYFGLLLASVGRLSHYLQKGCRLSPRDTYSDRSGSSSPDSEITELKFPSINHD
Method in brief: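 Enzyme preincubated with compound for 10 min at 25 °C in 50 mM Tris pH 8.0, 10 mM MgCl2, 0.01% Tween-20, 2 mM L-cysteine. ATP-to-ADP conversion detected by ADP-Glo Max luminescence after 60 min depletion and 60 min development steps. Percentage inhibition calculated per concentration.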

human CTPS1 [2] = target: T1, human CTPS1; experiment: RapidFire/MS-based enzyme selectivity assay (human CTPS1 versus CTPS2), CTPS1 isoform; type: biochemical; conditions: RapidFire/MS IC50 values of CTPS1 and CTPS2; Table 17
Method in brief: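 Full-length C-terminal FLAG-His-tagged CTPS1 (1-591) was preincubated 10 min at 25 °C with compound in HEPES pH 8.0 buffer with MgCl2, KCl, DTT and Tween-20. Reactions were started with a 2× mix of ATP 0.3 mM, UTP 0.2 mM, GTP 0.07 mM and L-glutamine 0.1 mM, and run in the linear phase at 25 °C. IC50 comes from the RapidFire-MS ratio of CTP to 13C9-15N3-CTP.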

Structure (SMILES) | pIC50 (human CTPS1 [1]) | Selectivity (fold selectivity between CTPS1 and CTPS2) (human CTPS1 [2])
CCS(=O)(=O)N1CCC(C(=O)Nc2ccc(-c3cncc(C4CC4)n3)cn2)(c2nccc(NS(=O)(=O)C3CC3)n2)CC1 [P317] | > 7.00 | +++ (>60 fold (+++))
CCOc1cncc(-c2ccc(NC(=O)C3(c4nccc(NS(=O)(=O)C5CC5)n4)CCN(S(=O)(=O)CC)CC3)nc2)n1 [P318] | > 7.00 | +++ (>60 fold (+++))
